Where two headings read alike, the source gives them in different places.
Experiments:
[1] = system: Spinal cord neuron cultures; assay: Spinal cord neuron assay; type: cell-based; conditions: Rattus norvegicus, 72 hours treatment, read-out: EC50 in spinal cord neuron assays
Description: Spinal cord neuron cultures were prepared from embryonic day 15 (E15) rat embryos (Liu et al., Screening of Immunophilin Ligands by Quantitative Analysis of Neurofilament Expression and Neurite Outgrowth in Cultured Neurons and Cells, J. Neurosci. Methods, 2007 Jul. 30; 163(2):310-20). The embryos were collected and their spinal cords were removed in ice-cold phosphate-buffered saline (PBS) without Ca^2+ and Mg^2+. Dissected pieces of spinal cord tissue were pooled together and transferred to an enzymatic dissociation media containing 20 IU/mL papain in Earle's balanced salt solution (Worthington Biochemical, Freehold, N.J.) and incubated for 30 minutes at 37° C. After enzymatic dissociation, the papain solution was aspirated and the tissue mechanically triturated with a fire-polished Pasteur pipette in complete media [Neurobasal Medium with B-27 supplement (Gibco, Grand Island, N.Y.), 100 IU/mL penicillin, 100 µg/mL streptomycin, […] aphidicolin, 0.5 mM glutamate] containing 2,000 IU/mL DNase and 10 mg/mL ovomucoid protease inhibitor. Single-cell suspensions in complete media were plated on pre-coated poly-L-ornithine/laminin 96-well plates (Becton-Dickinson, Bedford, Mass.) at a density of 1.0×10^4 cells/well. Spinal cord neurons were maintained for 24 hours then exposed to vehicle or various concentrations of compound for 72 hours.

[2] = system: cortical neuron cultures; assay: Cortical neuron assay (neurite outgrowth in dissociated cortical neuron cultures); type: cell-based, rat; conditions: Rattus norvegicus, Cortical neurone; 72 hours treatment, neurite outgrowth; read-out: EC50 in cortical neuron assays
Description: Dissociated cortical neuron cultures were prepared as previously described (Liu et al., Screening of Immunophilin Ligands by Quantitative Analysis of Neurofilament Expression and Neurite Outgrowth in Cultured Neurons and Cells, J. Neurosci. Methods, 2007 Jul. 30; 163(2):310-20).
Briefly, embryonic day 15 rat fetuses were collected and dissected in ice-cold PBS. Dissected cortices were pooled together and transferred to an enzymatic dissociation medium containing papain. After 30 minutes, the tissue was mechanically triturated with a fire-polished glass Pasteur pipette. Single-cell suspensions in complete media were seeded on poly-L-ornithine and laminin coated 96-well plates. After 24 hours, cultures were treated with various concentrations of compound for 72 hours. The cultures were then fixed and stained with an anti-tubulin primary antibody (TUJ-1) and a fluorescent-tagged secondary antibody. Neurite outgrowth was determined by using the Enhanced Neurite Outgrowth (ENO) algorithm with the Cellomics ArrayScan and expressed as average neurite length or total neurite length per cell.

[3] = system: Mesencephalic dopaminergic neuron cultures; assay: Dopaminergic uptake assay (3H-dopamine uptake after MPP+ exposure); type: cell-based, rat; conditions: read-out: EC50 in dopaminergic uptake assays
Description: Mesencephalic dopaminergic neuron cultures were prepared as described in Pong et al., J. Neurochem. 69: 986-994, 1997, which is incorporated herein by reference in its entirety. Embryonic day 15 (E15) rat fetuses were collected and dissected in ice-cold phosphate-buffered saline (PBS). The ventral piece of tissue compromising the mesencephalic dopaminergic region was dissected out. Dissected pieces of tissue were pooled together and transferred to an enzymatic dissociation medium containing 20 IU/mL papain in Earle's balanced salt solution (Worthington Biochemical, Freehold, N.J., USA) and incubated for 60 minutes at 37° C. After enzymatic dissociation, the papain solution was aspirated and the tissue mechanically triturated with a fire-polished glass Pasteur pipette in complete medium (equal volumes of minimum essential medium (MEM) and F-12 nutrient mixture (GibcoBRL) supplemented with 0.1 mg/mL apotransferrin and 2.5 μg/mL insulin) containing 2,000 IU/mL DNase and 10 mg/mL ovomucoid protease inhibitor.
For dopamine uptake experiments, single-cell suspensions in complete media were seeded on poly-L-ornithine and laminin coated 24-well plates. The cultures were maintained for seven days prior to experimentation. […]
After 48 hours growth of mesencephalic dopaminergic neuron cultures following MPP+ exposure, high-affinity 3H-dopamine uptake was performed using a modified method described by Prochiantz et al., Nature 293: 570-572, 1981, which is incorporated herein by reference. Cultures were washed with pre-warmed PBS containing 5.6 mM glucose and 1 mM ascorbic acid. Cultures were then incubated for 15 minutes at 37° C. with 50 nM 3H-dopamine (31 Ci/mmol, DuPont-NEN, Wilmington, Del., USA). The cultures were washed twice with buffer and lysed with 0.5N NaOH. The lysate was transferred to a scintillation vial containing Ultima Gold scintillation cocktail and radioactivity was determined with a liquid scintillation counter. Alternatively, culture lysates can be washed twice with buffer, incubated for 2 hours at room temperature with Optiphase Supermix scintillation cocktail (Wallac Scintillation Products, Gaithersburg, Md., USA), and radioactivity measured with a liquid scintillation counter.

| Compound | EC50 [1] | EC50 [2] | EC50 [3] | EC50 ([3]; Rattus norvegicus, Neuron) |
| --- | --- | --- | --- | --- |
| CO[C@H]1C[C@@H]2CC[C@@H](C)[C@@](O)(O2)C(=O)C(=O)N2CCCC[C@H]2C(=O)O[C@H]([C@H](C)C[C@@H]2CC[C@@H](O)[C@H](OC)C2)CC(=O)[C@H](C)/C=C(\C)[C@@H](O)[C@@H](OC)C(=O)[C@H](C)C[C@H](C)C2C=CC(/C=C/1C)ON2c1c(Cl)cccc1Cl [Example 3] | < 1 µM | < 1 µM |  |  |
| Rapamycin phenyltriazolinedione |  |  | < 1 µM |  |
| CO[C@H]1C[C@@H]2CC[C@@H](C)[C@@](O)(O2)C(=O)C(=O)N2CCCC[C@H]2C(=O)O[C@H]([C@H](C)C[C@@H]2CC[C@@H](O)[C@H](OC)C2)CC(=O)[C@H](C)/C=C(\C)[C@@H](O)[C@@H](OC)C(=O)[C@H](C)C[C@H](C)[C@@H]2C=C[C@H](/C=C/1C)ON2c1ccccc1 [Example 1, 9,27-dihydroxy-3-{2-[4-hydroxy-3-methoxycyclohexyl]-1-methylethyl}-10,21-dimethoxy-6,8,12,14,20,26-hexamethyl-37-phenyl-4,9,10,12,13,14,15,18,21,22,23,24,25,26,27,32,33,34,34a-nonadecahydro-3H-23,27-epoxy-18,15-(epoxyimino)pyrido[2,1-c][1,4]oxazacyclohentriacontine-1,5,11,28,29(6H,31H)-pentone] | < 1 µM | < 1 µM |  | < 1 µM |
| CO[C@H]1C[C@@H]2CC[C@@H](C)[C@@](O)(O2)C(=O)C(=O)N2CCCC[C@H]2C(=O)O[C@H]([C@H](C)C[C@@H]2CC[C@@H](OC(=O)C(C)(CO)CO)[C@H](OC)C2)CC(=O)[C@H](C)/C=C(\C)[C@@H](O)[C@@H](OC)C(=O)[C@H](C)C[C@H](C)/C=C/C=C/C=C/1C [CCI-779, reference compound] |  | > 1 µM |  | > 1 µM |
| CO[C@H]1C[C@@H]2CC[C@@H](C)[C@@](O)(O2)C(=O)C(=O)N2CCCC[C@H]2C(=O)O[C@H]([C@H](C)C[C@@H]2CC[C@@H](OC(=O)C(C)(C)Cc3ccccn3)[C@H](OC)C2)CC(=O)[C@H](C)/C=C(\C)[C@@H](O)[C@@H](OC)C(=O)[C@H](C)C[C@H](C)C2C=CC(/C=C/1C)ON2c1ccccc1 [Example 6, 9,27-dihydroxy-3-{-2-[4-hydroxy-3-methoxycyclohexyl]-1-methylethyl}-10,21-dimethoxy-6,8,12,14,20,26-hexamethyl-37-phenyl-4,9,10,12,13,14,15,18,21,22,23,24,25,26,27,32,33,34,34a-nonadecahydro-3H-23,27-epoxy-18,15-(epoxyimino) pyrido[2,1-c][1,4]oxazacyclohentriacontine-1,5,11,28,29(6H,31H)-pentone ester with-2,2-dimethyl-3′-(pyridin-2-yl)-propionic acid] | < 1 µM |  |  | < 1 µM |
| CO[C@H]1C[C@@H]2CC[C@@H](C)[C@@](O)(O2)C(=O)C(=O)N2CCCC[C@H]2C(=O)O[C@H]([C@H](C)C[C@@H]2CC[C@@H](O)[C@H](OC)C2)CC(=O)[C@H](C)/C=C(\C)[C@@H](O)[C@@H](OC)C(=O)[C@H](C)C[C@H](C)/C=C/C=C/C=C/1C [rapamycin] |  | > 1 µM |  | > 1 µM |
